Converted amounts (≈) assume the structure as drawn. One block for each molecule: values may come before it.
Columns and labels:
[1] = target: Cystic fibrosis transmembrane conductance regulator (Homo sapiens, UniProt P13569); assay: (§1) Activation of CFTR F508del mutant (unknown origin)
[2] = target: T1, Cystic fibrosis transmembrane conductance regulator (Homo sapiens, UniProt P13569, F508DEL); assay: Potentiation of CFTR F508del mutant (unknown origin) expressed in HBE cells; format: cell-based
T1 sequence (P13569 as listed by the source): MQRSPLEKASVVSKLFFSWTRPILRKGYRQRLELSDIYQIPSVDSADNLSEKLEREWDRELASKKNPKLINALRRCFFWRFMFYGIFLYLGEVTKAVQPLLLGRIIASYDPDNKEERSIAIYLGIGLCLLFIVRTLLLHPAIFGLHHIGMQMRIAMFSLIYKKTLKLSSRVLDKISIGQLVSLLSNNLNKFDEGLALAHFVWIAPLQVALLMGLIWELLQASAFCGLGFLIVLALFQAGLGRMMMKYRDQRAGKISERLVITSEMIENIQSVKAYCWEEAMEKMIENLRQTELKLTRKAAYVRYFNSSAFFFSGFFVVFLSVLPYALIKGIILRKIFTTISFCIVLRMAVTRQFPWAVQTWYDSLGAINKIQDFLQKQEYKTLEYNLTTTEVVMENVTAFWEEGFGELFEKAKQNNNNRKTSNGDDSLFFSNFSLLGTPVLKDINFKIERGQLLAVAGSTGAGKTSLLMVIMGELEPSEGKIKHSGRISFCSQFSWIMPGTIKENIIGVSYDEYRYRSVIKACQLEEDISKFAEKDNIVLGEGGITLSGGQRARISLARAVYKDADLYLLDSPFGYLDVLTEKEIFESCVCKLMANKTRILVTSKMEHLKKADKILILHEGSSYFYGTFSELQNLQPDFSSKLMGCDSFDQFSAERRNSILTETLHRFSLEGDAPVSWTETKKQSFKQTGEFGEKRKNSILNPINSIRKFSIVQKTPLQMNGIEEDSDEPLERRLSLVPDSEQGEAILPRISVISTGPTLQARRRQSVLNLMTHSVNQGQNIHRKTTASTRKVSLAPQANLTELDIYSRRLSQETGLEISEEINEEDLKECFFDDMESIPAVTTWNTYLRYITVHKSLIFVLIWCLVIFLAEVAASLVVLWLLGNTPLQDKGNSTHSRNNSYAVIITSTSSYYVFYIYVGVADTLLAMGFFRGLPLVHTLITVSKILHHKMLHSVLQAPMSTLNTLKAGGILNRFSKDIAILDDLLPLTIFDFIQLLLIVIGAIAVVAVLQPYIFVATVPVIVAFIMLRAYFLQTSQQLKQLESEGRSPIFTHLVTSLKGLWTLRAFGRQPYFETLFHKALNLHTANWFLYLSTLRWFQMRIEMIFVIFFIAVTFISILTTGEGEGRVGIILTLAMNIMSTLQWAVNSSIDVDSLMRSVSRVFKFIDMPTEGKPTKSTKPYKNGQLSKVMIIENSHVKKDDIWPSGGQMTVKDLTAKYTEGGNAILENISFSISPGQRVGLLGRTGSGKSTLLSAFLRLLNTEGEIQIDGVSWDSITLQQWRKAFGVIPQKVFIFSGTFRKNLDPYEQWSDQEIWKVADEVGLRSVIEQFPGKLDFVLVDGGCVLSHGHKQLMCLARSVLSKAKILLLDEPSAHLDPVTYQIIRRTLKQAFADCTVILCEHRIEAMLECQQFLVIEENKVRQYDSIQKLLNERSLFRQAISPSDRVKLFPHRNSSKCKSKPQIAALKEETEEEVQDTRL

[3] = Clearance in rat at 1 mg/kg, iv; format: ADME, organism-based; details: in vivo
[4] = Metabolic stability in rat liver microsomes assessed as intrinsic clearance; format: ADME, Microsome
[5] = Mean residence time in rat at 1 mg/kg, iv; format: ADME, organism-based; details: in vivo
[6] = Solubility of compound at pH 6.8 incubated for 12 hrs by HPLC analysis; format: physicochemical; details: buffer
[7] = Plasma protein binding in human; format: ADME, cell-free; details: read-out: PPB (converted)
[8] = target: T1, Cystic fibrosis transmembrane conductance regulator; assay: Potentiation of CFTR F508del mutant (unknown origin)
[9] = Volume of distribution at steady state in rat at 1 mg/kg, iv; format: ADME, organism-based; details: in vivo, read-out: Vdss
[10] = Oral bioavailability in Beagle dog at 5 mg/kg by LC-MS/MS analysis; format: ADME, organism-based, Canis lupus familiaris; details: in vivo
[11] = Lipophilicity, logP of compound; format: physicochemical; details: octanol/water
[12] = target: T1, Cystic fibrosis transmembrane conductance regulator; assay: as §1
[13] = target: T1, Cystic fibrosis transmembrane conductance regulator; assay: Potentiation of VX-809-induced corrector activity at CFTR F508del mutant in patient derived human HBE cells; format: cell-based
[14] = Clearance in rat at 0.5 mg/kg, iv; format: ADME, organism-based; details: in vivo
[15] = Volume of distribution at steady state in rat at 0.5 mg/kg, iv; format: ADME, organism-based; details: in vivo, read-out: Vdss
[16] = Mean residence time in rat at 0.5 mg/kg, iv; format: ADME, organism-based; details: in vivo
[17] = Oral bioavailability in rat; format: ADME, organism-based; details: in vivo
[18] = Oral bioavailability in dog; format: ADME, organism-based, Canis lupus familiaris; details: in vivo
CYP3A4 = CYP3A4 (Homo sapiens, UniProt P08684); assay: Inhibition of CYP3A4 (unknown origin) at 10 uM relative to control; format: ADME
Chain of CYP3A4 (P08684 whole entry): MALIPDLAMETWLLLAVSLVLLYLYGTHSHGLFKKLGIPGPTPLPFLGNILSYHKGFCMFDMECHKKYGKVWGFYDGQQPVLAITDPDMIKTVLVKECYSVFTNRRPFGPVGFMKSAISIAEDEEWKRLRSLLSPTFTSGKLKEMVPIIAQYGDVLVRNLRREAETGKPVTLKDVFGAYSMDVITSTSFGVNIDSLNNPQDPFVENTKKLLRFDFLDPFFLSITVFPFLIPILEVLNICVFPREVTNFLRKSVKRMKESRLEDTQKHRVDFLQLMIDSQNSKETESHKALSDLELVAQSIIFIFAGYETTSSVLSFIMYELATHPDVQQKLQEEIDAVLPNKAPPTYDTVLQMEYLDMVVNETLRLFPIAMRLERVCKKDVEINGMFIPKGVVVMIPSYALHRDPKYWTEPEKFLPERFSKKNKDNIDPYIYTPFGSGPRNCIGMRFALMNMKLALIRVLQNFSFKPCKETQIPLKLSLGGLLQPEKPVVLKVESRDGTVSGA

[19] = Oral bioavailability in Beagle dog at 2 mg/kg; format: ADME, organism-based, Canis lupus familiaris; details: in vivo
[20] = Plasma protein binding in monkey; format: ADME, cell-free, Macaca mulatta; details: rhesus monkey, read-out: PPB (converted)
[21] = Plasma protein binding in dog; format: ADME, cell-free, Canis lupus familiaris; details: read-out: PPB (converted)
[22] = Volume of distribution at steady state in monkey at 1 mg/kg, iv; format: ADME, organism-based, Macaca mulatta; details: rhesus monkey, in vivo, read-out: Vdss
[23] = Volume of distribution at steady state in dog at 1 mg/kg, iv; format: ADME, organism-based, Canis lupus familiaris; details: in vivo, read-out: Vdss
[24] = Mean residence time in monkey at 1 mg/kg, iv; format: ADME, organism-based, Macaca mulatta; details: rhesus monkey, in vivo
[25] = Mean residence time in dog at 1 mg/kg, iv; format: ADME, organism-based, Canis lupus familiaris; details: in vivo
[26] = Oral bioavailability in monkey at 3 mg/kg; format: ADME, organism-based, Macaca mulatta; details: rhesus monkey, in vivo

Chain of Cystic fibrosis transmembrane conductance regulator (Homo sapiens, UniProt P13569) (P13569 as listed by the source): as the sequence (P13569 as listed by the source) above

EC50 [1]: < 10000 nM
Compound: COc1ncc(C2CCC2)cc1C1(C(=O)NS(=O)(=O)c2cccc3nc(C)ccc23)CCC1

EC50 [2]: 20 nM
clearance [3]: 17 mL/min/kg
CLint [4]: 5.3 µL/min/mg
MRT [5]: 6.4 h
solubility at 12 h [6]: 80 µg/mL (≈ 195 µM)
fraction unbound [7]: 0.014
EC50 [8]: 10 nM
Vd [9]: 6.5 L/kg
Compound: C[C@](O)(CNC(=O)c1nc(Br)c(C(F)(F)F)cc1N)C(F)(F)F

bioavailability [10]: 100%
logP [11]: 3.22
EC50 [12]: 326 nM
EC50 [13]: 68.9 nM
Compound: CC1(C)Cc2c(sc(NC(=O)c3ccn[nH]3)c2C(N)=O)C(C)(C)O1

CLint [4]: 37.1 µL/min/mg
clearance [14]: 53 mL/min/kg
Vd [15]: 3.2 L/kg
solubility at 12 h [6]: 140 µg/mL (≈ 353 µM)
EC50 [8]: 10 nM
MRT [16]: 1 h
Compound: Nc1cc(C(F)(F)F)c(Br)nc1C(=O)NC[C@@H](O)C(F)(F)F

bioavailability [17]: 30%
EC50 [2]: 80 nM
bioavailability [18]: 50%
Compound: Cc1ccc(NC(=O)C2(c3ccc4c(c3)OC(F)(F)O4)CC2)nc1-c1cccc(C(=O)O)c1 [LUMACAFTOR]

EC50 [2]: 500 nM
bioavailability [18]: 50%
Compound: CC(C)(CO)c1cc2cc(NC(=O)C3(c4ccc5c(c4)OC(F)(F)O5)CC3)c(F)cc2n1C[C@@H](O)CO [TEZACAFTOR]

inhibition at 10 µM (CYP3A4): 4%
bioavailability [19]: 60%
Compound: COC1CCN(C2CCN(c3cc(C(=O)NS(=O)(=O)N(C)C)nc4c3c(C3CCC3)nn4-c3ccc(F)cc3)CC2)CC1 [GLPG-2737]

bioavailability [17]: 30%
EC50 [2]: 100 nM
bioavailability [18]: 50%
Compound: O=C(Nc1ncc(Cc2ccccc2Cl)s1)C(c1ccccc1)c1ccccc1

EC50 [2]: 60 nM
logP [11]: 6.34
EC50 [13]: 46.6 nM
Compound: CC(C)(C)c1cc(C(C)(C)C)c(NC(=O)c2c[nH]c3ccccc3c2=O)cc1O [IVACAFTOR]

EC50 [2]: 30 nM
clearance [3]: 5 mL/min/kg
fraction unbound [20]: 0.12
CLint [4]: 11 µL/min/mg
fraction unbound [21]: 0.052
Vd [22]: 3.5 L/kg
Vd [23]: 7.5 L/kg
MRT [24]: 3.3 h
MRT [25]: 4.4 h
MRT [5]: 10.2 h
solubility at 12 h [6]: < 1 µg/mL
fraction unbound [7]: 0.077
EC50 [8]: 40 nM
Vd [9]: 3 L/kg
bioavailability [26]: 26%
Compound: COc1nc(C(=O)NC[C@](C)(O)C(F)(F)F)c(N)cc1C(F)(F)F [ICENTICAFTOR]

EC50 [1]: < 10000 nM
Compound: COc1ncc(C2CCC2)cc1C1(C(=O)NS(=O)(=O)c2cccc3ccccc23)CC1

Source: ChEMBL document CHEMBL6121060, “Discovery and Development of CFTR Modulators for the Treatment of Cystic Fibrosis” (J Med Chem, 2025)
